For experiment [1], the system named is A-549. The experiment can be described thus: MTT cytotoxic assay, A-549 cells. The format is cell-based. The settings on record: Homo sapiens, A549, cancer cell line, 48 h, read-out: Inhibitory concentration (IC50) A-549. As to the method:
(§1) At the end of this time, 20 µL of the MTT solution (5 mg/mL) was added to each well and incubated for 4 h in the dark at 37 °C and 5% CO2. The supernatant was decanted, and the resulting formazan was dissolved in isopropyl alcohol with 4 mM HCl solution and was read in a UV/Vis reader at 590 nm. The results obtained were plotted, and the IC50 was obtained through linear regression.

Experiment [2] has as its system VERO. The experiment can be described thus: MTT cytotoxic assay, VERO cells. The format is cell-based. The settings on record: Chlorocebus sabaeus, normal cell line, 48 h, read-out: Inhibitory concentration (IC50) VERO. The protocol: (§2) At the end of this time, 20 µL of the MTT solution (5 mg/mL) was added to each well and incubated for 4 h in the dark at 37 °C and 5% CO2. The supernatant was decanted, and the resulting formazan was dissolved in isopropyl alcohol with 4 mM HCl solution and was read in a UV/Vis reader at 590 nm. The results obtained were plotted, and the IC50 was obtained through linear regression. […]
(§3) of the incubation, an MTT assay was performed to determine the viability of cells under treatment. Each bar in the chart indicates the percentage means and standard error of the mean. […]
(§4) healthy endothelial cells, VERO cells, and mixed culture of microglia, employing perezone (dotted) as a control. Cells from each line were incubated without control and with increased concentrations of the studied compounds during 48 h (n= 8). At the end of the incubation, an MTT assay was performed to determine the viability of cells under treatment. Each bar in the chart indicates the percentage means and […]
(§5) (1 picture or pasted object on this page, not shown here)

The test system of experiment [3] is Rat endothelial cells. The experiment can be described thus: MTT cytotoxic assay, healthy endothelial cells. The format is cell-based. The following applies: Endothelial cell, normal cell line, 48 h, read-out: Inhibitory concentration (IC50) Rat endothelial cells. As to the method:
as §2, §3, §4, §5
A general note: Formazan colour is commonly taken as a measure of viable cells.

For experiment [4], the system named is Mix cells. The experiment can be described thus: MTT cytotoxic assay, mixed culture of microglia. The format is cell-based. The settings on record: normal cells, 48 h, read-out: Inhibitory concentration (IC50) Mix cells. The protocol: as §2, §3, §4, §5
For experiment [5], the system named is MCF-7. The experiment can be described thus: MTT cytotoxic assay, MCF-7 cells. The format is cell-based. The settings on record: Homo sapiens, MCF7, cancer cell line, 48 h, read-out: Inhibitory concentration (IC50) MCF-7. The protocol: as §1
The test system of experiment [6] is MDA-MB-231. The experiment can be described thus: MTT cytotoxic assay, MDA-MB-231 cells. The format is cell-based. The following applies: Homo sapiens, cancer cell line, 48 h, read-out: Inhibitory concentration (IC50) MDA-MB-231. The protocol:
as §1

Experiment [7] concerns the target T1, PARP-1 enzyme (Homo sapiens, UniProt P09874). The experiment can be described thus: PARP-1 inhibition assay (colorimetric assay kit).
Description: Absorbances were obtained at 450 nm using a UV/Vis spectrophotometer E max Precision microplate reader (Molecular Devices, San Jose, CA, USA).
The test system of experiment [8] is HELA. The experiment can be described thus: MTT cytotoxic assay, Hela cells. The format is cell-based. The following applies: Homo sapiens, cancer cell line, 48 h, read-out: Inhibitory concentration (IC50) HELA. As to the method: as §1
The target of experiment [9] is T1, PARP-1 enzyme. Further details: purchased BPS Bioscience Inc. 80580. The settings on record: previously demonstrated; read-out: IC50 (PARP-1 inhibition) of perezone and natural derivatives; cited from earlier work.

Structures are written as SMILES. Like-named read-outs stand apart in the source and are kept apart here. A value given as a limit tells only on which side of the number the result lay.

T1 sequence (P09874 whole entry): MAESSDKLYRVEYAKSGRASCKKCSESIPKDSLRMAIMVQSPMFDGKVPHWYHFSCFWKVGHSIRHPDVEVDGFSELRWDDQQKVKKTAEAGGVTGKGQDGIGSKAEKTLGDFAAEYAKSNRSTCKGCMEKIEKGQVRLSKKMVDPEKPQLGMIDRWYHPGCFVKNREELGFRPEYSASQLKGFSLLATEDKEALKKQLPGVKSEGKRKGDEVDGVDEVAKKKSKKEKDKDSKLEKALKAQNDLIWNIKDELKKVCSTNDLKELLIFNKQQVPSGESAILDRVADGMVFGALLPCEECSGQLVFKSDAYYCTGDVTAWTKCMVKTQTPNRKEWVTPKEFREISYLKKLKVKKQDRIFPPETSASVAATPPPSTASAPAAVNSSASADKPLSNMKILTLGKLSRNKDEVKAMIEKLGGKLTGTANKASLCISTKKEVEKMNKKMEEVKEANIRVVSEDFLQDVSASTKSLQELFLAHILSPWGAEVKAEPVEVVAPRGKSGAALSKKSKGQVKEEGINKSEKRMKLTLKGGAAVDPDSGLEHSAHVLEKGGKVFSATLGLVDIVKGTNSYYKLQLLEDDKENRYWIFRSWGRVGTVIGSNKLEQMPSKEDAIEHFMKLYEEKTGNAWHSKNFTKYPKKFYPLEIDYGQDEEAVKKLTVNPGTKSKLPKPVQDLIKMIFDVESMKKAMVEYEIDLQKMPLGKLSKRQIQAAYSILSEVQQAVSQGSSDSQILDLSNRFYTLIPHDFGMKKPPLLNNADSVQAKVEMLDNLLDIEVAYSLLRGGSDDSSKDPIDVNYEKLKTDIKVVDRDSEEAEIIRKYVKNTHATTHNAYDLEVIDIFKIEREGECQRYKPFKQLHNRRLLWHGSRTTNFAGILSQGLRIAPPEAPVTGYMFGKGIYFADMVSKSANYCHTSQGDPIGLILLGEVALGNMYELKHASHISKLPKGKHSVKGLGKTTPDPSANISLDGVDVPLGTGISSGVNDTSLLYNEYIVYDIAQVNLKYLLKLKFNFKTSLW

For the compound `CC(C)=CCCC(C)C1=C(O)C(=O)C(C)=C(Sc2ccc(F)cc2CO)C1=O` (centres unmarked) [Compound 9, 2-((4-fluoro-2-(hydroxymethyl)phenyl)thio)-5-hydroxy-3-methyl-6-(6-methylhept-5-en-2-yl)cyclohexa-2.5-diene-1,4-dione], the IC50 in experiment [1] is over 200 µM; in experiment [2], 186 µM; in [3] it was over 200 µM; in [4], 179 µM; in experiment [5], 83.2 µM; in experiment [6], 145 µM. The IC50 was 0.317 µM in [7] and 200 µM in experiment [8].
For the compound `CC(C)=CCC[C@@H](C)C1=C(O)C(=O)C(C)=CC1=O` [Compound 1, perezone], the IC50 in experiment [9] is 181 µM; in experiment [1], 144 µM; in experiment [2] it was 312 µM; in experiment [3] it was over 200 µM; in [4], 63.1 µM; in experiment [5] it was 53.2 µM. Moreover, the IC50 in experiment [6] is 7.8 µM; in experiment [8] it was 42.3 µM.
On to `C/C=C(/C)C(=O)OC1=C([C@H](C)CCC=C(C)C)C(=O)C=C(C)C1=O` [Compound 2, perezone angelate], for which the IC50 in experiment [9] was 5.25 µM.
Take `CC(C)=CCC[C@@H](C)C1=C(O)C(=O)C(C)=C(O)C1=O` [Compound 3, hydroxyperezone]: the IC50 in [9] was 320 µM.
For `CC(C)=CCCC(C)C1=C(O)C(=O)C(C)=C(Sc2ccc(CC(=O)O)cc2)C1=O` (centres unmarked) [Compound 10, 2-(4-((hydroxy-2-methyl-5-(6-methylhept-5-en-2-yl)-3,6-dioxocyclohexa-1,4-dien-1-yl)thio)phenyl)acetic acid], the IC50 in [1] was over 200 µM; in experiment [2], 168 µM; in [3] it was over 200 µM; in experiment [4], over 200 µM; in experiment [5], over 200 µM; in experiment [6] it was over 200 µM. The IC50 was 0.32 µM in experiment [7] and over 200 µM in experiment [8].

Values taken from publication PMC10815500, “Design of Two New Sulfur Derivatives of Perezone: In Silico Study Simulation Targeting PARP-1 and In Vitro Study Validation Using Cancer Cell Lines” (International Journal of Molecular Sciences, 2024).
